According to patent US9480235B1, “Red lettuces with increased anthocyanins, polyphenols, and oxygen radical absorption capacity” (Rutgers, The State University of New Jersey, priority 2012, dated 2016):

Columns and labels:
Format in all cases: in vivo, C57Bl/6J mice
[1] = tested on: diet induced obese hyperglycemic mice; test: Experiment 1: fasting blood glucose after single oral NFR-S-4 lettuce; details: for FBG: mean +/- SD
Method: (§1) Five-week-old male C57Bl/6J mice (Jackson Labs) were housed in cages (five mice to a cage) at 25° C. with 12-h light-dark cycle. Mice were given ad libitum access to food and water and after an acclimatization period of one week, rodent diet was switched from chow (Purina, No. 5015) to a very high fat diet (VHFD) containing 60% kcal fat (D12492, Research Diets, New Brunswick, N.J.) for a at least 12 weeks to induce obesity, insulin resistance, and hyperglycemia (Surwit et al., Clin. Exp. Met., 44:645-51, 1995). Weekly food intake per cage and individual body weight measurements were determined throughout the study. All mice were introduced to intragastric feeding prior to treatment. During this time, a gavage administration of 0.2 mL of double distilled water was performed daily for 2-3 days prior to the scheduled experiments.
(§2) For all experiments, mice were randomly divided into fasting blood glucose (FBG)-balanced experimental groups. Lettuce leaves were lyophilized powdered and suspended in 66% labrasol or water for the aqueous extract and Metformin® antidiabetic drug was dissolved in water. Blood glucose levels were measured using an AlphaTrak® handheld glucometer (Abbott Labs Inc., Abbott Park, Ill.) using test strips.
In experiment 1, following a 4 hour fasting period, FBG was measured immediately prior to treatment and 6 hours post treatment. […]
(§3) Statistically significant differences between were analyzed by ANOVA followed by Dunnett's multiple comparisons test and/or paired t-tests (one tail) comparing FBG levels immediately prior to treatment (0 h) and 6 hours after treatment (Table 5). A p-value <0.05 was considered statistically significant.

[2] = tested on: diet induced obese hyperglycemic mice; test: Experiment 2: oral glucose tolerance test after daily oral NFR-S-4 aqueous extract; details: positive control 250 mg/kg
Method: as §1, §2
(§4) In experiment 2, high fat diet-induced obese mice, animals were given daily oral administration of NFR-S-4 aqueous extract (100 or 300 mg/kg) or vehicle (water) for 28 days (n=10) (Table 6). A Metformin® antidiabetic drug group (250 mg/kg) was included as a positive control for the animal model (n=5). Aqueous extracts were prepared by a 5:1 extraction (solvent volume to fresh weight) in hot (100° C.) acidified water (pH 2 with H2SO4) to assist with anthocyanin stability during the extraction process. Mice were fasted overnight prior to an oral glucose tolerance test. For oral glucose tolerance tests, mice were given an oral glucose challenge (2 g/kg) and blood glucose levels were measured prior to glucose challenge and 30, 60, 90, 120 and 180 minutes after glucose administration (Table 6).
as §3

[3] = tested on: diet induced obese hyperglycemic mice; test: Experiment 3: fasting blood glucose after single oral S-13 lettuce
Method: as §1, §2
In experiment 3, mice were treated using an oral ingestion of vehicle (66% labrasol), S-13 lettuce (100, 300 or 450 mg/kg), green Romaine lettuce (450 mg/kg, commercially available), or Metformin® antidiabetic drug (300 mg/kg) (n=4-5 Following a 4 h fasting period, FBG was measured immediately prior to treatment and 6 h post treatment (Table 7).
as §3

[4] = tested on: diet induced obese hyperglycemic mice; test: Experiment 4: oral glucose tolerance test 2 h after oral S-13 lettuce; details: 300 mg/kg oral 2 h before test
Method: as §1, §2, §4
In experiment 4, mice were treated with S-13 lettuce (100 mg/kg), vehicle (66% labrasol), or Metformin® antidiabetic drug (300 mg/kg) by oral administration (n=8-10). After 2 h, mice were given an oral glucose tolerance test as described above (Table 8).
as §3

[5] = 6 h post treatment, 300 mg/kg oral

CN(C)C(=N)N=C(N)N [Metformin]
FBG ([1]; 0 h (immediately prior to treatment), 4 h fast, 300 mg/kg oral group): 222 ± 19 mg/dL
% Decrease in FBG ([1]; 0 h to 6 h, 300 mg/kg oral): 39 +/− 14%
FBG [1, 5]: 133 ± 25 mg/dL
FBG, oral glucose tolerance test ([2]; 0 min, glucose 2 g/kg): 181 ± 26 mg/dL
FBG, oral glucose tolerance test ([2]; 30 min): 298 ± 52 mg/dL
FBG, oral glucose tolerance test ([2]; 60 min): 244 ± 19 mg/dL
FBG, oral glucose tolerance test ([2]; 90 min): 247 ± 32 mg/dL
FBG, oral glucose tolerance test ([2]; 120 min): 249 ± 35 mg/dL
Area under the curve, oral glucose tolerance test [2]: 30153
FBG ([3]; 0 (immediately prior to treatment), 4 h fast, 300 mg/kg oral group, mean +/- SD): 214 ± 20 mg/dL
% Decrease in FBG ([3]; 0 to 6 h, 300 mg/kg oral): 31 +/− 19%
FBG [3, 5]: 146 ± 34 mg/dL
FBG, oral glucose tolerance test ([4]; 0 min, glucose 2 g/kg): 206 ± 45 mg/dL
Area under the curve, oral glucose tolerance test [4]: 40683
FBG, oral glucose tolerance test ([4]; 30 min): 261 ± 51 mg/dL
FBG, oral glucose tolerance test ([4]; 60 min): 263 ± 69 mg/dL
FBG, oral glucose tolerance test ([4]; 90 min): 257 ± 62 mg/dL
FBG, oral glucose tolerance test ([4]; 120 min): 196 ± 31 mg/dL
FBG, oral glucose tolerance test ([4]; 180 min): 176 ± 30 mg/dL
